Drawing on PubChem BioAssay AID342 (DTP/NCI, 2004), this text covers T/C for eight compounds.

For the assay, the system named is Swiss mice, Sarcoma 180 sc, mean tumor weight T/C. Description: NCI In Vivo Anticancer Drug Screen. Data for tumor model Sarcoma 180 (subcutaneous) in Swiss mice. As to conditions: endpoint: mean tumor weight, higher = larger tumour. The essentials: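 Tumor-bearing mice, transplantable tumor; readout survival or tumor size; result = T/C, treated vs vehicle control.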

[1] abbreviates: dose: 40.0 mg/kg/injection, schedule: Q01DX007 (ip), vehicle: saline.

Molecules are shown by their SMILES. Several values for one entry are separate records, joined by “and”; a condition that tells them apart may be missing. Identical values can stand only once.

One may read the T/C as the ratio of treated to control. Consider `O=c1[nH]c(=O)n(C2CC(O)C(CO)O2)cc1F` (stereo not given), for which the T/C (dose: 2.0 mg/kg/injection, schedule: Q01DX007 (ip), vehicle: carboxymethylcellulose (CMC)) is 97 % of control; the T/C (dose: 4.0 mg/kg/injection, schedule: Q01DX007 (ip), vehicle: carboxymethylcellulose (CMC)) was 108 % of control; the T/C (dose: 8.0 mg/kg/injection, schedule: Q01DX007 (ip), vehicle: carboxymethylcellulose (CMC)) is 97 % of control; the T/C (dose: 10.0 mg/kg/injection, schedule: Q#A X014 (ip), vehicle: carboxymethylcellulose (CMC)) is 27 % of control; the T/C (dose: 12.5 mg/kg/injection, schedule: Q#A X014 (ip), vehicle: carboxymethylcellulose (CMC)) was 28 % of control; the T/C (dose: 16.0 mg/kg/injection, schedule: Q01DX007 (ip), vehicle: carboxymethylcellulose (CMC)) is 94 % of control. The T/C is 119 % of control (dose: 20.0 mg/kg/injection, schedule: Q01DX007 (ip), vehicle: saline); 14 % of control (dose: 20.0 mg/kg/injection, schedule: Q#A X014 (ip), vehicle: carboxymethylcellulose (CMC)); 10 % of control (dose: 25.0 mg/kg/injection, schedule: Q#A X014 (ip), vehicle: carboxymethylcellulose (CMC)); 86 % of control under setting [1]; 4 % of control (dose: 40.0 mg/kg/injection, schedule: Q#A X014 (ip), vehicle: carboxymethylcellulose (CMC)); 29 % of control (dose: 80.0 mg/kg/injection, schedule: Q01DX007 (ip), vehicle: carboxymethylcellulose (CMC)). Moreover, the T/C is, setting by setting: (dose: 80.0 mg/kg/injection, schedule: Q01DX007 (ip), vehicle: saline) 109 % of control; (dose: 80.0 mg/kg/injection, schedule: Q#A X014 (ip), vehicle: carboxymethylcellulose (CMC)) 15 % of control; (dose: 106.6 mg/kg/injection, schedule: Q01DX007 (ip), vehicle: carboxymethylcellulose (CMC)) 7 % of control; (dose: 128.0 mg/kg/injection, schedule: Q01DX007 (ip), vehicle: carboxymethylcellulose (CMC)) 8 % of control; (dose: 160.0 mg/kg/injection, schedule: Q01DX007 (ip), vehicle: carboxymethylcellulose (CMC)) 5 % of control; (dose: 160.0 mg/kg/injection, schedule: Q01DX007 (ip), vehicle: saline) 56 % of control.
Regarding `O=c1[nH]cc(N(CCCl)CCCl)c(=O)[nH]1`, the T/C (dose: 0.2 mg/kg/injection, schedule: Q01DX007 (ip), vehicle: carboxymethylcellulose (CMC)) was 104 % of control; the T/C (dose: 0.31 mg/kg/injection, schedule: Q#A X014 (ip), vehicle: carboxymethylcellulose (CMC)) is 51 % of control; the T/C (dose: 0.32 mg/kg/injection, schedule: Q#A X014 (ip), vehicle: carboxymethylcellulose (CMC)) was 65 % of control; the T/C (dose: 0.4 mg/kg/injection, schedule: Q01DX007 (ip), vehicle: carboxymethylcellulose (CMC)) was 88 % of control; the T/C (dose: 0.4 mg/kg/injection, schedule: Q#A X014 (ip), vehicle: carboxymethylcellulose (CMC)) is 67 % of control; the T/C (dose: 0.53 mg/kg/injection, schedule: Q#A X014 (ip), vehicle: carboxymethylcellulose (CMC)) was 67 % of control. The T/C is 32 % of control (dose: 0.62 mg/kg/injection, schedule: Q#A X014 (ip), vehicle: carboxymethylcellulose (CMC)); 85 % of control (dose: 0.64 mg/kg/injection, schedule: Q01DX007 (ip), vehicle: carboxymethylcellulose (CMC)); 85 % of control (dose: 0.75 mg/kg/injection, schedule: Q01DX007 (ip), vehicle: saline); 62 % of control and 76 % of control (dose: 0.8 mg/kg/injection, schedule: Q01DX007 (ip), vehicle: carboxymethylcellulose (CMC)); 41 % of control (dose: 0.8 mg/kg/injection, schedule: Q#A X014 (ip), vehicle: carboxymethylcellulose (CMC)); 51 % of control (dose: 1.06 mg/kg/injection, schedule: Q01DX007 (ip), vehicle: carboxymethylcellulose (CMC)). Further, the T/C is, setting by setting: (dose: 1.5 mg/kg/injection, schedule: Q01DX007 (ip), vehicle: saline) 60 % of control; (dose: 1.5 mg/kg/injection, schedule: Q#A X014 (ip), vehicle: alkali diluted with saline) 21 % of control; (dose: 1.6 mg/kg/injection, schedule: Q01DX007 (ip), vehicle: carboxymethylcellulose (CMC)) 21 % of control.
Consider `Nc1ccc(C(=O)O)c(O)c1`, for which the T/C was 108 % of control and 121 % of control (dose: 95.87 mg/kg/injection, schedule: Q01DX007 (ip), vehicle: carboxymethylcellulose (CMC)); 44 % of control (dose: 306.8 mg/kg/injection, schedule: Q01DX007 (ip), vehicle: carboxymethylcellulose (CMC)); 57 % of control (dose: 511.33 mg/kg/injection, schedule: Q01DX007 (ip), vehicle: carboxymethylcellulose (CMC)).
For `COc1cccc2c1C(=O)c1c(O)c3c(c(O)c1C2=O)C[C@@](O)(C(C)=O)C[C@@H]3OC1CC(N)C(O)C(C)O1` (stereo not given in full), the T/C is 86 % of control (dose: 1.0 mg/kg/injection, schedule: Q01DX007 (sc), vehicle: steriod suspending solution); 54 % of control and 42 % of control (dose: 5.0 mg/kg/injection, schedule: Q01DX007 (sc), vehicle: steriod suspending solution).
For the compound `O=C1C=CC2(CCC23C=CC(=O)O3)O1` (stereo not given), under setting [1], the T/C was 88 % of control.
As to `O=C1c2cc(Cl)ccc2-c2c(Cl)cc(Cl)cc21`, the T/C by setting is: (dose: 25.0 mg/kg/injection, schedule: Q01DX007 (ip), vehicle: methylcellulose (MC)) 100 % of control; (dose: 43.0 mg/kg/injection, schedule: Q01DX007 (ip), vehicle: carboxymethylcellulose (CMC)) 76 % of control; (dose: 66.0 mg/kg/injection, schedule: Q01DX007 (ip), vehicle: carboxymethylcellulose (CMC)) 65 % of control; (dose: 98.0 mg/kg/injection, schedule: Q01DX007 (ip), vehicle: carboxymethylcellulose (CMC)) 44 % of control and 50 % of control; (dose: 147.0 mg/kg/injection, schedule: Q01DX007 (ip), vehicle: carboxymethylcellulose (CMC)) 36 % of control; (dose: 149.0 mg/kg/injection, schedule: Q01DX007 (ip), vehicle: carboxymethylcellulose (CMC)) 59 % of control. Also, the T/C is 30 % of control and 44 % of control (dose: 222.0 mg/kg/injection, schedule: Q01DX007 (ip), vehicle: carboxymethylcellulose (CMC)); 48 % of control (dose: 222.0 mg/kg/injection, schedule: Q01DX007 (ip), vehicle: other); 25 % of control and 32 % of control (dose: 333.0 mg/kg/injection, schedule: Q01DX007 (ip), vehicle: carboxymethylcellulose (CMC)); 39 % of control (dose: 333.0 mg/kg/injection, schedule: Q01DX007 (ip), vehicle: other); 22 % of control (dose: 500.0 mg/kg/injection, schedule: Q01DX007 (ip), vehicle: carboxymethylcellulose (CMC)); 27 % of control (dose: 750.0 mg/kg/injection, schedule: Q01DX007 (ip), vehicle: other).
As for `COC1C(OC(=O)/C=C/C=C/C=C/C=C/C(=O)O)CCC2(CO2)C1C1(C)OC1CC=C(C)C` (stereo not given), the T/C runs as follows: (dose: 2.5 mg/kg/injection, schedule: Q#A X014 (ip), vehicle: saline) 70 % of control; (dose: 5.0 mg/kg/injection, schedule: Q#A X014 (ip), vehicle: methylcellulose (MC)) 76 % of control; (dose: 5.0 mg/kg/injection, schedule: Q#A X014 (ip), vehicle: saline) 54 % of control; (dose: 6.0 mg/kg/injection, schedule: Q01DX007 (ip), vehicle: carboxymethylcellulose (CMC)) 62 % of control; (dose: 6.3 mg/kg/injection, schedule: Q01DX007 (ip), vehicle: carboxymethylcellulose (CMC)) 58 % of control; (dose: 10.0 mg/kg/injection, schedule: Q#A X014 (ip), vehicle: methylcellulose (MC)) 50 % of control. The T/C is 58 % of control (dose: 10.0 mg/kg/injection, schedule: Q#A X014 (ip), vehicle: saline); 60 % of control (dose: 12.0 mg/kg/injection, schedule: Q01DX007 (ip), vehicle: carboxymethylcellulose (CMC)); 84 % of control (dose: 12.5 mg/kg/injection, schedule: Q01DX007 (ip), vehicle: carboxymethylcellulose (CMC)); 50 % of control (dose: 20.0 mg/kg/injection, schedule: Q#A X014 (ip), vehicle: methylcellulose (MC)); 51 % of control (dose: 20.0 mg/kg/injection, schedule: Q#A X014 (ip), vehicle: saline); 41 % of control and 53 % of control and 63 % of control (dose: 25.0 mg/kg/injection, schedule: Q01DX007 (ip), vehicle: carboxymethylcellulose (CMC)). Besides, the T/C was 38 % of control (dose: 40.0 mg/kg/injection, schedule: Q#A X014 (ip), vehicle: methylcellulose (MC)); 39 % of control (dose: 40.0 mg/kg/injection, schedule: Q#A X014 (ip), vehicle: saline); 19 % of control (dose: 80.0 mg/kg/injection, schedule: Q#A X014 (ip), vehicle: methylcellulose (MC)); 17 % of control and 36 % of control (dose: 200.0 mg/kg/injection, schedule: Q01DX007 (ip), vehicle: carboxymethylcellulose (CMC)).
Regarding `CCCCCCCCCCCCCCCCC(C(=O)O)C(O)(CC(=O)O)C(=O)O` (stereo not given), the T/C was 81 % of control (dose: 19.0 mg/kg/injection, schedule: Q01DX007 (ip), vehicle: carboxymethylcellulose (CMC)); 104 % of control (dose: 37.5 mg/kg/injection, schedule: Q01DX007 (ip), vehicle: carboxymethylcellulose (CMC)); 91 % of control (dose: 75.0 mg/kg/injection, schedule: Q01DX007 (ip), vehicle: carboxymethylcellulose (CMC)).
